Measurements reported in patent publication US7473790B2 (Pfizer Inc., priority 2003, dated 2009).

Each compound was assayed against T1, HCV polymerase (Hepatitis C virus genotype 1b, UniProt P26663) (assay: HCV polymerase primer/template-directed transcription assay (32P-GTP incorporation, filter binding)). Details: recombinant HCV polymerase; 30 minutes at 30° C.; concentration giving 50% inhibition of polymerase-directed transcription; read-out: IC50.
T1 construct: 2.5 pmoles (0.15 μg) HCV polymerase protein in a final volume of 75 μL
Assay type: biochemical
Procedure: The compounds described herein were tested for activity with HCV polymerase. Recombinant HCV polymerase was tested for its ability to perform primer/template-directed transcription in assays that contained 30 mM tris-HCl pH 7.2, 10 mM MgCl2, 20 mM NaCl, 1 mM Dithiothreitol (DTT), 0.05% Tween-20, 1% glycerol, 5 pmoles biotin-dG12 (primer), 0.5 pmoles poly(rC)300 (template), 1 μM GTP, 0.1-0.3 uCi α-^32P-GTP, and 2.5 pmoles (0.15 μg) HCV polymerase protein in a final volume of 75 μL. Reactions were initiated by addition of enzyme and incubated 30 minutes at 30° C. Reactions were stopped by addition of 33 mM EDTA, and polynucleotide products were collected by filtration through Diethylaminoethyl (DE) Filtermat papers (Wallac). Unincorporated triphosphate was removed by washing the filters with 5% dibasic sodium phosphate. The filters were counted in a Packard Tri-Lux Microbeta scintillation counter (Packard Bioscience, Meriden, Conn.). Compounds to be tested were added at various concentrations, e.g., 1 μm to 50 μm, from stocks in 10% DMSO-water (final DMSO is 1% in reaction).
IC50 values were estimated from the primary cpm data (collected in triplicate) using the formula: cpm (I)=cpm(no inhibitor)(1−([I]/([I]+IC50))). An IC50 value represents the concentration (in μM) of a compound that provides 50% inhibition of polymerase-directed transcription in the above assay. A percent inhibition value is expressed for a compound where it was impractical to calculate an IC50 value with available data. If the IC50 estimated by the above equation was less than 200 nM, it was recalculated using the following equation, which takes into account the enzyme concentration (30 nM) in the assay: cpm(I)=cpm(no inhibitor)(1−((((I+IC50+30e−9)−sqrt(((I+IC50+30e−9)^2)−4×30e−9×I)))/((2)(30e−9))). Curve fitting was performed using the program KaleidaGraph (Synergy Software, Reading, Pa.).

T1 sequence (P26663 2420-3010): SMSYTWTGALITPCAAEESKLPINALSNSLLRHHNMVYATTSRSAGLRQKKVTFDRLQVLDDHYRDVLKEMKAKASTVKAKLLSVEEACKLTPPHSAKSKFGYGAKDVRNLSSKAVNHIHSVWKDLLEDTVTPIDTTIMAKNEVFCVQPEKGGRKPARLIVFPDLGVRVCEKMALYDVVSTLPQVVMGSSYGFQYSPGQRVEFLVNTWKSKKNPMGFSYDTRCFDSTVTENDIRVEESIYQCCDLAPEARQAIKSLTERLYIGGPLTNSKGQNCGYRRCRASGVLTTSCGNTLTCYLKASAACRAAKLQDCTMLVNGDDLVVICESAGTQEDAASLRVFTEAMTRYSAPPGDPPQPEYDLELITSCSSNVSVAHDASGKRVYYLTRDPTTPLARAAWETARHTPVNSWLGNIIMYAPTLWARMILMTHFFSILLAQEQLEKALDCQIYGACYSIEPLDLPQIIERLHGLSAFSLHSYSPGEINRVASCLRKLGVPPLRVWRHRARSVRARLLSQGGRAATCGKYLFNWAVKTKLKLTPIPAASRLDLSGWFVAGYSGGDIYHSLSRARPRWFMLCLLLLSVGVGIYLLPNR

Question: With `CC(C)Oc1ccc(CCC2(C3CCCC3)CC(=O)CC(=O)O2)cc1F` (single isomer, unassigned) [J(2), 6-cyclopentyl-6-[2-(3-fluoro-4-isopropoxyphenyl)ethyl]dihydro-2H-pyran-2,4(3H)-dione] as the compound, how does the IC50 read?
Answer: 3900 nM

Question: For `Cc1cc(C)n2nc(CC3=C(O)CC(CCc4ccc(OC(C)C)c(F)c4)(C4CCCC4)OC3=O)nc2n1` (single isomer, unassigned) [J(3), 6-cyclopentyl-3-[(5,7-dimethyl[1,2,4]triazolo[1,5-a]pyrimidin-2-yl)methyl]-6-[2-(3-fluoro-4-isopropoxyphenyl)ethyl]-4-hydroxy-5,6-dihydro-2H-pyran-2-one], which IC50 is on record?
Answer: 5 nM

Question: `Cc1cc(C)n2nc(CC3=C(O)CC(CCc4ccc(OC(C)C)c(F)c4)(C4CCCC4)OC3=O)nc2n1` (single isomer, unassigned) [J(4), 6-cyclopentyl-3-[(5,7-dimethyl[1,2,4]triazolo[1,5-a]pyrimidin-2-yl)methyl]-6-[2-(3-fluoro-4-isopropoxyphenyl)ethyl]-4-hydroxy-5,6-dihydro-2H-pyran-2-one] was tested. Which IC50 did it give?
Answer: 19 nM

Question: For `CCc1cccc(CCC2(C3CCCC3)CC(=O)CC(=O)O2)c1` (single isomer, unassigned) [J(5), 6-Cyclopentyl-6-[2-(3-ethyl-phenyl)-ethyl]-dihydro-pyran-2,4-dione], which IC50 is on record?
Answer: 1900 nM

Question: With `CCc1cccc(CCC2(C3CCCC3)CC(=O)CC(=O)O2)c1` (single isomer, unassigned) [J(6), 6-Cyclopentyl-6-[2-(3-ethyl-phenyl)-ethyl]-dihydro-pyran-2,4-dione] as the compound, how does the IC50 read?
Answer: 1200 nM

Question: How did the IC50 turn out when `CCc1cccc(CCC2(C3CCCC3)CC(O)=C(Cc3nc4nc(C)cc(C)n4n3)C(=O)O2)c1` (single isomer, unassigned) [J(7), 6-Cyclopentyl-3-(5,7-dimethyl-[1,2,4]triazolo[1,5-a]pyrimidin-2-ylmethyl)-6-[2-(3-ethyl-phenyl)-ethyl]-4-hydroxy-5,6-dihydro-pyran-2-one] was run?
Answer: 10 nM

Question: With `CCc1cccc(CCC2(C3CCCC3)CC(O)=C(Cc3nc4nc(C)cc(C)n4n3)C(=O)O2)c1` (single isomer, unassigned) [J(8), 6-Cyclopentyl-3-(5,7-dimethyl-[1,2,4]triazolo[1,5-a]pyrimidin-2-ylmethyl)-6-[2-(3-ethyl-phenyl)-ethyl]-4-hydroxy-5,6-dihydro-pyran-2-one] as the compound, how does the IC50 read?
Answer: 14 nM

Question: With `Cc1cnc2nc(CC3C(=O)CC(CCc4ccc(C(C)(C)C#N)c(F)c4)(C4CCCC4)OC3=O)nn2c1` (single isomer, unassigned; (+)) [A(109), (+)-2-(4-{2-[2-Cyclopentyl-5-(6-methyl-[1,2,4]triazolo[1,5-a]pyrimidin-2-ylmethyl)-4,6-dioxo-tetrahydro-pyran-2-yl]-ethyl}-2-fluoro-phenyl)-2-methyl-propionitrile] as the compound, how does the IC50 read?
Answer: 4 nM

Question: With `CC(C)(C#N)c1ccc(CCC2(C3CCCC3)CC(O)=C(Cc3nc4ncc(Cl)cn4n3)C(=O)O2)cc1F` (single isomer, unassigned; (+)) [A(248), (+)-2-(4-{2-[5-(6-Chloro-[1,2,4]triazolo[1,5-a]pyrimidin-2-ylmethyl)-2-cyclopentyl-4,6-dioxo-tetrahydro-pyran-2-yl]-ethyl}-2-fluoro-phenyl)-2-methyl-propionitrile] as the compound, how does the IC50 read?
Answer: 16 nM

Question: With `CC(C)(C#N)c1c(F)cc(CCC2(C3CCCC3)CC(O)=C(Cc3nc4ncc(Cl)cn4n3)C(=O)O2)cc1F` (single isomer, unassigned; (+)) [A(259), (+)-2-(4-{2-[5-(6-Chloro-[1,2,4]triazolo[1,5-a]pyrimidin-2-ylmethyl)-2-cyclopentyl-4-hydroxy-6-oxo-3,6-dihydro-2H-pyran-2-yl]-ethyl}-2,6-difluoro-phenyl)-2-methyl-propionitrile] as the compound, how does the IC50 read?
Answer: 6 nM

Question: Which IC50 does the source give for `CCC(C#N)(CC)c1c(F)cc(CCC2(C3CCCC3)CC(O)=C(Cc3nc4ncc(C)cn4n3)C(=O)O2)cc1F` (single isomer, unassigned; (+)) [A(263), (+)-2-(4-{2-[2-Cyclopentyl-4-hydroxy-5-(6-methyl-[1,2,4]triazolo[1,5-a]pyrimidin-2-ylmethyl)-6-oxo-3,6-dihydro-2H-pyran-2-yl]-ethyl}-2,6-difluoro-phenyl)-2-ethyl-butyronitrile] here?
Answer: 7 nM

Question: How did the IC50 turn out when `CCC(C#N)(CC)c1ccc(CCC2(C3CCCC3)CC(O)=C(Cc3nc4ncc(Cl)cn4n3)C(=O)O2)cc1F` (single isomer, unassigned; (+)) [A(266), (+)-2-(4-{2-[5-(6-Chloro-[1,2,4]triazolo[1,5-a]pyrimidin-2-ylmethyl)-2-cyclopentyl-4-hydroxy-6-oxo-3,6-dihydro-2H-pyran-2-yl]-ethyl}-2-fluoro-phenyl)-2-ethyl-butyronitrile] was run?
Answer: 19 nM

Question: Which IC50 does the source give for `Cc1cnc2nc(CC3C(=O)CC(CCc4ccc(C(C)(C)C#N)c(F)c4)(C4CCCC4)OC3=O)nn2c1` (single isomer, unassigned; (-)) [A(110), (−)-2-(4-{2-[2-Cyclopentyl-5-(6-methyl-[1,2,4]triazolo[1,5-a]pyrimidin-2-ylmethyl)-4,6-dioxo-tetrahydro-pyran-2-yl]-ethyl}-2-fluoro-phenyl)-2-methyl-propionitrile] here?
Answer: 1 nM

Question: Which IC50 does the source give for `CCc1cc(CCC2(C3CCCC3)CC(O)=C(Cc3nc4nc(C)cc(C)n4n3)C(=O)O2)c(OC)cc1O` (single isomer, unassigned; (-)) [A(155), (−)-6-Cyclopentyl-3-(5,7-dimethyl-[1,2,4]triazolo[1,5-a]pyrimidin-2-ylmethyl)-6-[2-(5-ethyl-4-hydroxy-2-methoxy-phenyl)-ethyl]-4-hydroxy-5,6-dihydro-pyran-2-one] here?
Answer: 3 nM

Question: Which IC50 does the source give for `CC(C)(C#N)c1ccc(CCC2(C3CCCC3)CC(O)=C(Cc3nc4ncc(Cl)cn4n3)C(=O)O2)cc1F` (single isomer, unassigned; (-)) [A(249), (−)-2-(4-{2-[5-(6-Chloro-[1,2,4]triazolo[1,5-a]pyrimidin-2-ylmethyl)-2-cyclopentyl-4,6-dioxo-tetrahydro-pyran-2-yl]-ethyl}-2-fluoro-phenyl)-2-methyl-propionitrile] here?
Answer: 19 nM

Question: `Cc1cnc2nc(CC3=C(O)CC(CCc4cc(F)c(C(C)(C)C#N)c(F)c4)(C4CCCC4)OC3=O)nn2c1` (single isomer, unassigned; (-)) [A(258), (−)-2-(4-{2-[2-Cyclopentyl-4-hydroxy-5-(6-methyl-[1,2,4]triazolo[1,5-a]pyrimidin-2-ylmethyl)-6-oxo-3,6-dihydro-2H-pyran-2-yl]-ethyl}-2,6-difluoro-phenyl)-2-methyl-propionitrile] was tested. Which IC50 did it give?
Answer: 2 nM

Question: With `CC(C)(C#N)c1c(F)cc(CCC2(C3CCCC3)CC(O)=C(Cc3nc4ncc(Cl)cn4n3)C(=O)O2)cc1F` (single isomer, unassigned; (-)) [A(260), (−)-2-(4-{2-[5-(6-Chloro-[1,2,4]triazolo[1,5-a]pyrimidin-2-ylmethyl)-2-cyclopentyl-4-hydroxy-6-oxo-3,6-dihydro-2H-pyran-2-yl]-ethyl}-2,6-difluoro-phenyl)-2-methyl-propionitrile] as the compound, how does the IC50 read?
Answer: 7 nM

Question: `CCC(C#N)(CC)c1c(F)cc(CCC2(C3CCCC3)CC(O)=C(Cc3nc4ncc(C)cn4n3)C(=O)O2)cc1F` (single isomer, unassigned; (-)) [A(264), (−)-2-(4-{2-[2-Cyclopentyl-4-hydroxy-5-(6-methyl-[1,2,4]triazolo[1,5-a]pyrimidin-2-ylmethyl)-6-oxo-3,6-dihydro-2H-pyran-2-yl]-ethyl}-2,6-difluoro-phenyl)-2-ethyl-butyronitrile] was tested. Which IC50 did it give?
Answer: 4 nM

Question: How did the IC50 turn out when `CCC(C#N)(CC)c1ccc(CCC2(C3CCCC3)CC(O)=C(Cc3nc4ncc(Cl)cn4n3)C(=O)O2)cc1F` (single isomer, unassigned; (-)) [A(267), (−)-2-(4-{2-[5-(6-Chloro-[1,2,4]triazolo[1,5-a]pyrimidin-2-ylmethyl)-2-cyclopentyl-4-hydroxy-6-oxo-3,6-dihydro-2H-pyran-2-yl]-ethyl}-2-fluoro-phenyl)-2-ethyl-butyronitrile] was run?
Answer: 4 nM

Question: How did the IC50 turn out when `CCc1ccc(O)c(CCC2(C3CCCC3)CC(O)=C(Cc3nc4nc(C)cc(C)n4n3)C(=O)O2)c1` (single isomer, unassigned; enantiomer 1) [A(167), Enantiomer 1 of 6-Cyclopentyl-3-(5,7-dimethyl-[1,2,4]triazolo[1,5-a]pyrimidin-2-ylmethyl)-6-[2-(5-ethyl-2-hydroxy-phenyl)-ethyl]-4-hydroxy-5,6-dihydro-pyran-2-one] was run?
Answer: 4 nM

Question: `CCc1ccc(O)c(CCC2(C3CCCC3)CC(O)=C(Cc3nc4ncc(Cl)cn4n3)C(=O)O2)c1` (single isomer, unassigned; enantiomer 1) [A(171), Enantiomer 1 of 3-(6-Chloro-[1,2,4]triazolo[1,5-a]pyrimidin-2-ylmethyl)-6-cyclopentyl-6-[2-(5-ethyl-2-hydroxy-phenyl)-ethyl]-4-hydroxy-5,6-dihydro-pyran-2-one] was tested. Which IC50 did it give?
Answer: 4 nM
